Source: PubChem BioAssay AID1259407 (Chemical Carcinogenesis Research Information System (CCRIS), 2018)
“Also recorded” adds a separate entry of the source. The source made the active and inactive calls. No rule for the calls is given here.

Test system: CCRIS mutagenicity, Ames/micronucleus/aberration tests
Test: CCRIS mutagenicity studies
[1] = Test System: AMES SALMONELLA TYPHIMURIUM, Strain/Indicator: TA97, Metabolic Activation: NONE, Method: PREINCUBATION
[2] = Test System: AMES SALMONELLA TYPHIMURIUM, Strain/Indicator: TA98, Metabolic Activation: NONE, Method: PREINCUBATION
[3] = Test System: AMES SALMONELLA TYPHIMURIUM, Strain/Indicator: TA100, Metabolic Activation: NONE, Method: PREINCUBATION
[4] = Test System: AMES SALMONELLA TYPHIMURIUM, Strain/Indicator: TA98, Metabolic Activation: NONE, Method: STANDARD PLATE
[5] = Test System: AMES SALMONELLA TYPHIMURIUM, Strain/Indicator: TA100, Metabolic Activation: NONE, Method: STANDARD PLATE

## Oc1ccc(Cl)c(Cl)c1Cl
End Point: IN VITRO CHROMOSOMAL ABERRATIONS, Test System: CHINESE HAMSTER LUNG CELLS (CHL), Metabolic Activation: NONE
  mutagenic call: inactive; negative
End Point: IN VITRO CHROMOSOMAL ABERRATIONS, Test System: CHINESE HAMSTER LUNG CELLS (CHL), Metabolic Activation: RAT, LIVER, S-9, KC-400
  mutagenic call: inactive; negative
End Point: IN VITRO CHROMOSOMAL ABERRATIONS, Test System: CHINESE HAMSTER OVARY CELLS (CHO), Metabolic Activation: NONE
  mutagenic call: inactive; negative
End Point: IN VITRO CHROMOSOMAL ABERRATIONS, Test System: CHINESE HAMSTER OVARY CELLS (CHO), Metabolic Activation: RAT, LIVER, S-9, AROCLOR 1254
  mutagenic call: active; positive (structural changes); positive only at highest dose where a total of 25
End Point: IN VITRO CHROMOSOMAL ABERRATIONS, Test System: CHL CELLS, Metabolic Activation: S-9
  mutagenic call: inactive; positive (structural changes); multilaboratory comparison among 5 labs; 4 report; also recorded: inactive; positive (structural changes); multilaboratory comparison among 6 labs; 5 report
End Point: IN VITRO CHROMOSOMAL ABERRATIONS, Test System: CHO CELLS, Metabolic Activation: NONE
  mutagenic call: inactive; positive (structural changes); multilaboratory comparison among 5 labs; 4 report; also recorded: inactive; negative; multilaboratory comparison among 5 labs; 1 reported weakly positive; 4; also recorded: inactive; negative; multilaboratory comparison among 4 labs; negative except for 1 weak po
End Point: IN VITRO CHROMOSOMAL ABERRATIONS, Test System: CHO CELLS, Metabolic Activation: S-9
  mutagenic call: active; positive (structural changes); multilaboratory comparison among 6 labs; all repo; also recorded: inactive; positive (structural changes); multilaboratory comparison among 5 labs; 2 report
Test System: AMES SALMONELLA TYPHIMURIUM, Strain/Indicator: TA97, Metabolic Activation: HAMSTER, LIVER, S-9, AROCLOR 1254 (10 OR 30%), Method: PREINCUBATION
  mutagenic call: inactive; negative
[1]
  mutagenic call: inactive; negative
Test System: AMES SALMONELLA TYPHIMURIUM, Strain/Indicator: TA97, Metabolic Activation: RAT, LIVER, S-9, AROCLOR 1254 (10 OR 30%), Method: PREINCUBATION
  mutagenic call: inactive; negative
Test System: AMES SALMONELLA TYPHIMURIUM, Strain/Indicator: TA98, Metabolic Activation: HAMSTER, LIVER, S-9, AROCLOR 1254 (10 OR 30%), Method: PREINCUBATION
  mutagenic call: inactive; negative
[2]
  mutagenic call: inactive; negative
Test System: AMES SALMONELLA TYPHIMURIUM, Strain/Indicator: TA98, Metabolic Activation: RAT, LIVER, S-9, AROCLOR 1254 (10 OR 30%), Method: PREINCUBATION
  mutagenic call: inactive; negative
Test System: AMES SALMONELLA TYPHIMURIUM, Strain/Indicator: TA100, Metabolic Activation: HAMSTER, LIVER, S-9, AROCLOR 1254 (10 OR 30%), Method: PREINCUBATION
  mutagenic call: inactive; negative
[3]
  mutagenic call: inactive; negative
Test System: AMES SALMONELLA TYPHIMURIUM, Strain/Indicator: TA100, Metabolic Activation: RAT, LIVER, S-9, AROCLOR 1254 (10 OR 30%), Method: PREINCUBATION
  mutagenic call: inactive; negative
Test System: AMES SALMONELLA TYPHIMURIUM, Strain/Indicator: TA1535, Metabolic Activation: HAMSTER, LIVER, S-9, AROCLOR 1254 (10 OR 30%), Method: PREINCUBATION
  mutagenic call: inactive; negative
Test System: AMES SALMONELLA TYPHIMURIUM, Strain/Indicator: TA1535, Metabolic Activation: NONE, Method: PREINCUBATION
  mutagenic call: inactive; negative
Test System: AMES SALMONELLA TYPHIMURIUM, Strain/Indicator: TA1535, Metabolic Activation: RAT, LIVER, S-9, AROCLOR 1254 (10 OR 30%), Method: PREINCUBATION
  mutagenic call: inactive; negative
Test System: AMES SALMONELLA TYPHIMURIUM, Strain/Indicator: TA1537, Metabolic Activation: HAMSTER, LIVER, S-9, AROCLOR 1254 (30%), Method: PREINCUBATION
  mutagenic call: inactive; negative
Test System: AMES SALMONELLA TYPHIMURIUM, Strain/Indicator: TA1537, Metabolic Activation: NONE, Method: PREINCUBATION
  mutagenic call: inactive; negative
Test System: AMES SALMONELLA TYPHIMURIUM, Strain/Indicator: TA1537, Metabolic Activation: RAT, LIVER, S-9, AROCLOR 1254 (30%), Method: PREINCUBATION
  mutagenic call: inactive; negative

## COC(=O)CCN(N=O)C(N)=O
Test System: E. COLI B, Strain/Indicator: H/R30R, Metabolic Activation: NONE
  mutagenic call: active; positive
Test System: E. COLI B, Strain/Indicator: HS30R, Metabolic Activation: NONE
  mutagenic call: active; positive

## Oc1ccc2[nH]ccc2c1
[3]
  mutagenic call: inactive; negative

## CCC(=O)N(O)c1ccc(/C=C/c2ccccc2)cc1
[2]
  mutagenic call: inactive; negative
Test System: AMES SALMONELLA TYPHIMURIUM, Strain/Indicator: TA98, Metabolic Activation: RAT, LIVER, CYTOSOL, Method: PREINCUBATION
  mutagenic call: active; positive
Test System: AMES SALMONELLA TYPHIMURIUM, Strain/Indicator: TA98, Metabolic Activation: RAT, LIVER, MICROSOMES, Method: PREINCUBATION
  mutagenic call: active; positive

## CCC(=O)OCC(=O)[C@@]1(OC(=O)CC)[C@H](C)C[C@H]2[C@H]3[C@H]([C@@H](O)C[C@@]21C)[C@@]1(C)C=CC(=O)C=C1C[C@H]3Cl
[4]
  mutagenic call: inactive; negative
Test System: AMES SALMONELLA TYPHIMURIUM, Strain/Indicator: TA98, Metabolic Activation: RAT, LIVER, S-9, AROCLOR 1254, Method: STANDARD PLATE
  mutagenic call: inactive; negative
[5]
  mutagenic call: inactive; negative
Test System: AMES SALMONELLA TYPHIMURIUM, Strain/Indicator: TA100, Metabolic Activation: RAT, LIVER, S-9, AROCLOR 1254, Method: STANDARD PLATE
  mutagenic call: inactive; negative
Test System: AMES SALMONELLA TYPHIMURIUM, Strain/Indicator: TA1535, Metabolic Activation: NONE, Method: STANDARD PLATE
  mutagenic call: inactive; negative
Test System: AMES SALMONELLA TYPHIMURIUM, Strain/Indicator: TA1535, Metabolic Activation: RAT, LIVER, S-9, AROCLOR 1254, Method: STANDARD PLATE
  mutagenic call: inactive; negative
Test System: AMES SALMONELLA TYPHIMURIUM, Strain/Indicator: TA1537, Metabolic Activation: NONE, Method: STANDARD PLATE
  mutagenic call: inactive; negative
Test System: AMES SALMONELLA TYPHIMURIUM, Strain/Indicator: TA1537, Metabolic Activation: RAT, LIVER, S-9, AROCLOR 1254, Method: STANDARD PLATE
  mutagenic call: inactive; negative
Test System: E. COLI, Strain/Indicator: WP2, Metabolic Activation: NONE, Method: STANDARD PLATE
  mutagenic call: inactive; negative
Test System: E. COLI, Strain/Indicator: WP2, Metabolic Activation: RAT, LIVER, S-9, AROCLOR 1254, Method: STANDARD PLATE
  mutagenic call: inactive; negative
Test System: E. COLI, Strain/Indicator: WP2 UVRA, Metabolic Activation: NONE, Method: STANDARD PLATE
  mutagenic call: inactive; negative
Test System: E. COLI, Strain/Indicator: WP2 UVRA, Metabolic Activation: RAT, LIVER, S-9, AROCLOR 1254, Method: STANDARD PLATE
  mutagenic call: inactive; negative

## Clc1ccc2oc3ccccc3c2c1
[4]
  mutagenic call: active; positive
Test System: AMES SALMONELLA TYPHIMURIUM, Strain/Indicator: TA98, Metabolic Activation: RAT, LIVER, S-9, PHENOBARBITAL AND NAPHTHOFLAVONE, Method: STANDARD PLATE
  mutagenic call: active; positive
[5]
  mutagenic call: inactive; negative
Test System: AMES SALMONELLA TYPHIMURIUM, Strain/Indicator: TA100, Metabolic Activation: RAT, LIVER, S-9, PHENOBARBITAL AND NAPHTHOFLAVONE, Method: STANDARD PLATE
  mutagenic call: inactive; negative

## Cc1[nH]ccc2c1[nH]c1cc(=O)ccc12
[1]
  mutagenic call: active; positive
Test System: AMES SALMONELLA TYPHIMURIUM, Strain/Indicator: TA97, Metabolic Activation: RAT, LIVER, S-9, AROCLOR 1254, Method: PREINCUBATION
  mutagenic call: inactive; negative
[2]
  mutagenic call: inactive; negative
Test System: AMES SALMONELLA TYPHIMURIUM, Strain/Indicator: TA98, Metabolic Activation: RAT, LIVER, S-9, AROCLOR 1254, Method: PREINCUBATION
  mutagenic call: inactive; negative
[3]
  mutagenic call: inactive; negative
Test System: AMES SALMONELLA TYPHIMURIUM, Strain/Indicator: TA100, Metabolic Activation: RAT, LIVER, S-9, AROCLOR 1254, Method: PREINCUBATION
  mutagenic call: inactive; negative
Test System: AMES SALMONELLA TYPHIMURIUM, Strain/Indicator: TA102, Metabolic Activation: NONE, Method: PREINCUBATION
  mutagenic call: inactive; negative
Test System: AMES SALMONELLA TYPHIMURIUM, Strain/Indicator: TA102, Metabolic Activation: RAT, LIVER, S-9, AROCLOR 1254, Method: PREINCUBATION
  mutagenic call: inactive; negative
